# pIC50: −log10 of the molar value. Where two headings read alike, the source gives them in different places.
# Key:
# [1] = test system: C. elegans VC3631 (mev-1 gk3613, D19 resistant); test: IC50 on CID 2747322 resistant C. elegans strain VC3631; type: in vivo, Caenorhabditis elegans; details: 5 days exposure, 2 L4 per well, three biological replicates
# Experimental: (§1) All compound libraries were stored in 96-well plates, with 80 drugs per plate (columns 1 and 12 left empty). A BioGrid BG600 pinning robot (Digilab / BioRobotics) was used for compound transfer. The robot uses a 96-pin tool (0.7 mm dia.) to transfer a nominal volume of 340 nL of compound. For retesting, compounds were hand pinned from the original library plates to assay plates using a single 0.7 mm dia. pin. The assay plates were 96-well clear flat-bottom microplates containing 2% χ1666 E.coli bacteria in 0.5X Liquid Nematode Growth Media (LNGM) plus cholesterol (Bacteria were mass-grown in rich media, and harvested by centrifugation to produce a thick paste of bacterial cells that was kept frozen at -20°C. Cells were resuspended at 2% W/V in 0.5X LNGM to produce liquid worm food). Using a COPAS Biosort (Union Biometrica), two L4 to young adult stage VC2010 worms were added to each well of the plate in a final volume of 45 μL. After five days of exposure to the compounds, the plates were scanned and the data analyzed. A five day time period was chosen to be able to observe effects over all stages of the life cycle and through at least one round of replication. The initial proof-of-principle primary screen was performed manually using a dissecting microscope. Phenotypes scored included decreased motility, reduced brood size, and/or death as described previously. For high throughput screening of the Chembridge and Maybridge compound libraries we used the program WormScan, which was adapted for screening 96-well flat-bottom LNGM plates. Using WormScan it was possible to screen four 96-well plates at a time. Plates were scanned twice, at a resolution of 1200 dots per inch, 16-bit grayscale, producing a jpeg image. The light intensity produced by the scanner was sufficient to cause negative phototaxis equivalent to a physical stimulus for mortality determination. The time required to scan four 96-well plates using an Epson Perfection V700 Photo Scanner was less than ten minutes. The time to screen a single plate was less than 1.2 minutes, with less than ten seconds between scans.
# (§2) WormScan was used to screen for the same phenotypes as in the manual screen (reduced brood size, reduced behavior/motility response and increased mortality). Two sequential scans for each 96-well plate were aligned to a reference region of interest (ROI). Image analysis was based on a difference image score calculated for each ROI. The difference image score (WormScan score) was normalized using a “percent of control” method to derive a normalized WormScan score. […] Wild-type growth in 1% DMSO (Fig 1A) results in a normalized WormScan score of 100. Exposure to 50 nM ivermectin gives a score of 0 (Fig 1C), and complete absence of worms gives a score of 0 (Fig 1D). For the primary screen the WormScan score was calculated using custom macro scripts written for Fiji. For secondary screening and any subsequent studies the WormScan score was calculated using a standalone Java program (See supplemental). Probit regression of mortality was calculated using Mathematica 8.0.
# (§3) A standard ethyl methanesulfonate (EMS) mutagenesis protocol was carried out using VC2010 in order to generate mutants resistant to CID 2747322 exposure. First larval stage (L1) F2 progeny of mutagenized P0s were exposed to CID 2747322 at 200 μM in liquid worm food in 24-well tissue culture plates for five days at room temperature, and two independently isolated resistant lines (VC3614 and VC3615) were identified. […]
# [2] = test system: C. elegans DA1316 (avr-14(ad1302); avr-15(vu227); glc-1(pk54), ivermectin resistant); test: IC50 on ivermectin resistant C. elegans strain; type: in vivo, Caenorhabditis elegans; details: 5 days exposure, 2 L4 per well, three biological replicates
# [3] = test system: C. elegans RB2119 (acr-23(ok2804), monepantel-resistant); test: IC50 on amino-acetonitrile resistant C. elegans strain; type: in vivo, Caenorhabditis elegans; details: 5 days exposure, 2 L4 per well, three biological replicates, read-out: IC50, strain RB2119 (amino-acetonitriles)
# [4] = test system: C. elegans VC2010 (wild type); test: WormScan screen of C. elegans growth, fecundity, motility and mortality; type: in vivo, Caenorhabditis elegans; parameters: normalized WormScan score: dose or concentration left out as unconfirmed
# Experimental: as §1, §2
# [5] = test system: C. elegans VC3635 (pink-1 gk3615, D19 resistant); test: IC50 on CID 2747322 resistant C. elegans strain VC3635; type: in vivo, Caenorhabditis elegans; details: 5 days exposure, 2 L4 per well, three biological replicates
# Experimental: as §1, §2, §3
# [6] = test system: C. elegans CB193 (unc-29(e193), levamisole resistant); test: IC50 on levamisole resistant C. elegans strain; type: in vivo, Caenorhabditis elegans; details: 5 days exposure, 2 L4 per well, three biological replicates
# [7] = test system: C. elegans CB3474 (ben-1(e1880), benomyl resistant); test: IC50 on benzimidazole resistant C. elegans strain; type: in vivo, Caenorhabditis elegans; details: 5 days exposure, 2 L4 per well, three biological replicates
# [8] = test system: Human embryonic kidney (HEK293) cells; test: HEK293 viability, MTT colorimetric assay; type: cell-based; details: read-out: Mammalian IC50
# Experimental: Potential anthelmintic compounds identified from primary screening were further tested against mammalian cells and yeast to determine whether they had deleterious effects in those organisms. Human embryonic kidney (HEK293) cells were grown in Dulbecco’s Modified Eagle’s Medium (DMEM; Sigma) containing 5% fetal bovine serum (FBS; Sigma) in 96-well plates tissue culture plates. Compounds were added 24h post-plating at 10, 30, 100, or 300 μM final concentrations. Dimethyl sulfoxide (DMSO) was used as a negative control at 0.1%. Cells were treated for 24 or 48 hours, after which time viability was assessed using a 3-(4,5-dimethylthiazol-2-yl)-2,5-diphenyltetrazolium bromide (MTT) colorimetric assay. Percent viability was determined by comparing treatment values to DMSO control values.
# [9] = test system: S. cerevisiae yeast strain BY4743; test: Yeast growth rate (OD600) dose titration; type: cell-based; details: BY4743, YPD, growth rate reduced by 50%
# Experimental: The S. cerevisiae yeast strain BY4743 (MATa/α his3Δ1/his3Δ1 leu2Δ0/leu2Δ0 LYS2/lys2Δ0 met15Δ0/MET15 ura3Δ0/ura3Δ0) was used for all yeast experiments and was grown using yeast extract peptone dextrose (YPD) media at pH 7 [52]. BY4743 was grown overnight to initial log phase and was then grown with the compound identified in the C. elegans assay. The growth rate was quantified by continuously monitoring the optical density of the liquid yeast growth at OD600. The compound was screened in a dose-titration in YPD as described. The IC50 was the concentration required to reduce the growth rate or Average G value by 50% compared to a vehicle control (2% DMSO).
# C. elegans VC2010 [10] = test: Manual inspection of growth, brood size, developmental stage and recovery of C. elegans in drug; type: in vivo, Caenorhabditis elegans; details: L1s removed from the drug
# Experimental: WormScan is a powerful tool to identify compounds with potential effects on the nematode, but it is still necessary to do manual inspection of wells with few animals to determine details of growth, behavior and fecundity. Wild-type worms grown in 90 μM CID 2747322 have brood sizes reduced by 97%. […] All current classes of anthelmintic have greater specificity towards certain life-stages. It is interesting that when removed from the drug L1s will recover and develop, and generally become fertile adults (See S3 Fig).
# Supplementary file pntd.0005058.s002.tiff: S2 Fig Developmental stage of inhibition in C. elegans after CID 2747322 exposure. Ten VC2010 L1 stage C. elegans were sorted into a DMSO control well or 90 μM of CID 2747322. Nematodes were removed from the DMSO control or CID 2747322 after 24/48/72 hours and allowed to recover for 30 minutes on standard agar plates. (TIFF) Click here for additional data file.
# Supplementary file pntd.0005058.s003.tiff: S3 Fig Development of C. elegans after removel from CID 2747322. Greater than 50 VC2010 L1 stage C. elegans were sorted into a DMSO control well or 90 μM of CID 2747322. Nematodes were removed from DMSO control or CID 2747322 after 2 days of exposure and left to recovery for 24/48/72 hours. (TIFF) Click here for additional data file.
# nematodes = test system: nematodes; parameters: method as in PMID 10924467; details: cited from earlier work
# A. suum complex II = test system: A. suum complex II; parameters: method as in PMID 26198225; details: cited from earlier work
# porcine complex II = test system: porcine complex II; parameters: method as in PMID 26198225; details: cited from earlier work
# C. elegans VC2010 [11] = test: Manual phenotyping pilot screen of 3,584 known compounds (CCBN library); type: in vivo, Caenorhabditis elegans; details: dissecting microscope, positively confirmed drugs of CCBN library
# [12] = Caenorhabditis elegans, 120 h, 5 days exposure, 2 L4 per well, three biological replicates, read-out: IC50, strain VC2010 (wild type)
# [13] = 5 days exposure, 2 L4 per well, three biological replicates, read-out: IC50, strain VC2010 (wild type)
# [14] = C. elegans, 5 days exposure, read-out: Nematode IC50
compound,measurement,setting,value
c1ccc2[nH]cnc2c1 [Benzimidazole],pIC50,"[1]; Caenorhabditis elegans, 120 h",4.04
same,pIC50,"[2]; Caenorhabditis elegans, 120 h",4.23
same,pIC50,"[3]; Caenorhabditis elegans, 120 h",4.55
same,pIC50,[4]; [12],4.21
same,pIC50,"[5]; Caenorhabditis elegans, 120 h",3.93
same,pIC50,"[6]; Caenorhabditis elegans, 120 h",3.95
same,pIC50,"[7]; Caenorhabditis elegans, 120 h",< 3.00
FC(F)(F)c1cc(NCc2ccccc2)nc(-c2ccccc2)n1 [CID 796072],pIC50,[8],4.55
same,pIC50,[9],< 3.00
same,pIC50,[1],4.96
same,pIC50,[2],5.10
same,pIC50,[3],5.70
same,pIC50,[4]; [13],5.15
same,greater sensitivity in C. elegans than in other organisms (nematode index),"[4]; C. elegans versus mammalian cells, Table 1",four-fold
same,pIC50,[4]; [14],5.15
same,pIC50,[5],5.05
same,pIC50,[6],5.52
same,pIC50,[7],5.70
Cc1csc2sc(C(=O)CC(=O)C(F)(F)F)c(C)c12 [CID 2743002],pIC50,[8],4.27
same,pIC50,[9],4.70
same,pIC50,[4]; [14],< 3.30
Cc1nn(S(=O)(=O)c2ccccc2)c(C)c1Oc1ccc(Cl)cc1 [CID 2745791],pIC50,[8],4.27
same,pIC50,[9],< 3.00
same,pIC50,[4]; [14],4.00
COc1ccc(OCCNC(=O)c2c(F)cccc2Cl)cc1 [CID 2747279],pIC50,[8]; Homo sapiens,3.72
same,pIC50,[9]; Saccharomyces cerevisiae,< 3.00
same,anthelmintic activity on retest of the 50 compounds most similar to CID 2747322,"[4]; C. elegans, re-pinned, two additional biological replicates",strong anthelmintic activity
same,pIC50,"[4]; Caenorhabditis elegans, 120 h, C. elegans, 5 days exposure, read-out: Nematode IC50",4.89
O=C(Nc1ccc(Cl)cc1)Nc1ccc2ncccc2c1 [CID 2823320],pIC50,[8],4.35
same,pIC50,[9],< 3.00
same,pIC50,[4]; [14],4.40
Cc1nc2c(c3c1[nH]c1ccccc13)C(=O)CC(C)(C)C2 [CID 3254982],pIC50,[8],4.43
same,pIC50,[9],3.85
same,pIC50,[4]; [14],4.77
C=C(C)C1CC=C(CN(C)C2CCN(C)CC2)CC1 (stereo not shown) [CID 6456299],pIC50,[8],3.74
same,pIC50,[9],< 3.00
same,pIC50,[4]; [14],< 3.30
"O=C(NCCc1ncc(C(F)(F)F)cc1Cl)c1ccccc1C(F)(F)F [Fluopyram, reference compound]",pIC50,[8]; Homo sapiens,3.52
same,pIC50,[9]; Saccharomyces cerevisiae,< 3.00
same,pIC50,"[4]; Caenorhabditis elegans, 120 h, read-out: Nematode IC50",7.30
same,outcome after exposure / removal from drug,C. elegans VC2010 [10],animals are killed
c1ccc([C@H]2CN3CCSC3=N2)cc1 [Levamisole],pIC50,"[1]; Caenorhabditis elegans, 120 h",5.00
same,pIC50,"[2]; Caenorhabditis elegans, 120 h",5.10
same,pIC50,"[3]; Caenorhabditis elegans, 120 h",5.40
same,pIC50,[4]; [12],5.40
same,pIC50,"[5]; Caenorhabditis elegans, 120 h",5.22
same,pIC50,"[6]; Caenorhabditis elegans, 120 h",< 3.60
same,pIC50,"[7]; Caenorhabditis elegans, 120 h",5.70
CC1(C)SC2C(N)C(=O)N2C1C(=O)O (stereo not shown) [WACT162],effect on nematodes,nematodes,only reduces growth
CC(C)Oc1cccc(NC(=O)c2ccccc2C(F)(F)F)c1 [flutolanil],pIC50,A. suum complex II,7.61
same,pIC50,porcine complex II,5.06
Ivermectin,pIC50,[8],3.52
same,pIC50,[9],< 3.00
same,pIC50,[1],8.00
same,Worm Reaction in Drug,C. elegans VC2010 [11],appears dead/paralyzed no progeny
same,pIC50,[2],5.15
same,pIC50,[3],8.00
same,WormScan Score,"[4]; 50 μM, five days exposure, normalized, DMSO control = 100",0
same,pIC50,[4]; [13],7.52
same,pIC50,[4]; [14],7.52
same,normalized WormScan score,"[4]; normalized, DMSO control = 100",0
same,pIC50,[5],8.00
same,pIC50,[6],8.00
same,pIC50,[7],8.00

# From paper PMC5068747, “Using C. elegans Forward and Reverse Genetics to Identify New Compounds with Anthelmintic Activity” (PLoS Neglected Tropical Diseases, 2016)
